In paper PMC5802278, “Molecular and cellular mechanisms of HIF prolyl hydroxylase inhibitors in clinical trials” (Chemical Science, 2017):
Read-outs that look alike come from different tables or passages of the source.

How the values were obtained:
PHD2 [1] = target: T1, PHD2 (Homo sapiens, UniProt Q9GZT9); test: MALDI-TOF MS PHD hydroxylation assay; assay type: biochemical; details: 1μM isolated recombinant human PHD2, MALDI-TOF MS
Protocol: Protocols for in vitro PHD1–3 MALDI-TOF MS hydroxylation assays[30] and for the AlphaScreen histone demethylase assays[44] were as reported.
Although sharing homologous C-terminal catalytic domains, the N-terminal regions of PHD1–3 vary. […] In vitro inhibition assays of the clinical trial PHD inhibitors (and some of their structurally related analogue) against 1 μM recombinant human PHD1–3 were performed.
Fig. S11. In vitro PHD isoform selectivity profiling of PHD inhibitors. Inhibition of PHD inhibitors against human PHD125 -3 as assayed by MALDI-TOF MS (the protocol is described in Chan et al. ). Eight concentrations were used to obtained dose-response curve for each compound. Data points presented in the graph are mean with standard deviation, n=3. IC50 […]
(1 picture or pasted object on this page, not shown here)

PHD2 [2] = target: T1, PHD2; test: LC-MS based RapidFire PHD2 hydroxylation assay; assay type: biochemical; details: 150 nM isolated recombinant human PHD2, LC-MS based RapidFire assay
Protocol: LC-MS PHD2 hydroxylation assays
The PHD2 RF-MS RapidFire liquid chromatography mass spectrometry (RF-MS) assay monitors turnover of a C-terminal oxygenase dependent domain (CODD) peptide substrate
(Pro564) in an endpoint type assay format (typical enzyme incubation time of 15 minutes).
Tris(hydroxymethyl)aminomethane was from Fisher. Ferrous ammonium sulfate (FAS), 2-oxoglutarate (2OG) and L-ascorbic acid were from Sigma Aldrich; solutions of these were prepared freshly each day. All inhibition assays were carried out in 384-well polypropylene plates (Greiner Bio-One). PHD2 assays were performed in assay buffer (50 mM Tris.Cl pH
well polypropylene assay plates. The final assay concentration of DMSO was kept constant at 0.5%. PHD2 protein was prepared at a concentration of 300 nM in assay buffer and 25 μl dispensed across each 384-well assay plate. […]
water containing 0.1% formic acid onto the mass spectrometer. Peptide charge states were monitored in positive mode. Ion chromatogram data were extracted for the +2 charge state and peak area data integrated using RapidFire Integrator software (Agilent). % conversion of the CODD peptide substrate to the +16 hydroxylated peptide was calculated using the equation: % conversion = 100 x hydroxylated / (hydroxylated + non-hydroxylated peptide). IC50 values were determined from non-linear regression plots using GraphPad prism.

[3] = target: T2, PHD2 catalytic domain (residues 181-426) (Homo sapiens, UniProt Q9GZT9); test: AlphaScreen antibody based PHD2 assay (HIF-1α CODD peptide hydroxylation); assay type: biochemical; set-up: 10 nM PHD2 (catalytic domain, residues 181–426); made in house; details: AlphaScreen; 5 nM PHD2, 2 μM 2OG, 60 nM biotinylated CODD peptide; read-out: IC50 PHD2
T2 sequence (Q9GZT9 181-426): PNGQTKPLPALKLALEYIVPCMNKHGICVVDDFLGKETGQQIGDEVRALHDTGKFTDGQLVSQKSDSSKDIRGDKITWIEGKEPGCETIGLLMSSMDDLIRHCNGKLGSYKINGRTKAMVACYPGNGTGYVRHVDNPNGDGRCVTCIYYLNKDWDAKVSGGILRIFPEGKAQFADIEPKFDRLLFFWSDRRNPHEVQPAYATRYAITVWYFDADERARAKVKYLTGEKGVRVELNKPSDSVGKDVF
Protocol: AlphaScreen antibody based PHD assays were as reported[39] using 384-well white ProxiPlates™ (PerkinElmer). Reactions were performed in 50 mM HEPES buffer pH 7.5, 0.01% Tween-20 and 0.1% BSA in a final volume of 10 μL at room temperature. […] The luminescence signal was measured using an Envision (Perkin Elmer) plate reader. Data were analyzed utilizing GraphPad prism.

[4] = target: T2, PHD2 catalytic domain (residues 181-426); test: 1H CPMG NMR screening of equimolar enzyme-inhibitor mixture; assay type: binding; set-up: The catalytic domain of human PHD2 (residues 181-426) was used in all; made in house; details: equimolar enzyme-inhibitor mixture (50 µM)
[5] = tested on: patients with anaemia secondary to CKD stage 3 or 4; set-up: method as in ref 32 (a number printed in a supplementary file, which may have a reference list of its own: not looked up in the article's list); details: 6 weeks, cited from earlier work
FIH = FIH (Homo sapiens, UniProt Q9NWT6); test: LC-MS (RapidFire) FIH hydroxylation assay; assay type: biochemical
Sequence of FIH (Q9NWT6 whole entry): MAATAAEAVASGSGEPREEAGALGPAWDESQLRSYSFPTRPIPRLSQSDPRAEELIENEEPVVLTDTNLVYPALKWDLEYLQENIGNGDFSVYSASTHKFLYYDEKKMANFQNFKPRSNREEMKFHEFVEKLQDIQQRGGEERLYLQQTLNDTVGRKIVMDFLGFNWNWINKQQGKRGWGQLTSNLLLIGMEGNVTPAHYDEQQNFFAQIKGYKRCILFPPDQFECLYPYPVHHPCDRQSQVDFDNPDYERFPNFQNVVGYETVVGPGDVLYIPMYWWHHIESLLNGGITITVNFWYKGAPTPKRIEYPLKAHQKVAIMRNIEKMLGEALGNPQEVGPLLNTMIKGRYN

[6] = tested on: NDD-CKD subjects with Hb ≤ 11.0 g/dL; set-up: method as in ref 34 (a number printed in a supplementary file, which may have a reference list of its own: not looked up in the article's list); details: 4 weeks, cited from earlier work
[7] = tested on: patients with stable end-stage renal disease (ESRD) treated with haemodialysis; set-up: method as in ref 35 (a number printed in a supplementary file, which may have a reference list of its own: not looked up in the article's list); details: cited from earlier work
[8] = tested on: patients with ESRD and Hb ≤ 10.0 g/dL; set-up: method as in ref 37 (a number printed in a supplementary file, which may have a reference list of its own: not looked up in the article's list); details: cited from earlier work
[9] = tested on: patients with NDD CKD and Hb < 10.0 g/dL; set-up: method as in ref 38 (a number printed in a supplementary file, which may have a reference list of its own: not looked up in the article's list); details: TIW, 9 weeks, cited from earlier work
[10] = tested on: patients with ESRD on haemodialysis and previously with Epoetin Alfa; set-up: method as in ref 38 (a number printed in a supplementary file, which may have a reference list of its own: not looked up in the article's list); details: TIW, 7 weeks, cited from earlier work
[11] = tested on: patients with NDD CKD stage 3-5 and Hb 8.5-11.0 g/dL; set-up: method as in ref 42 (a number printed in a supplementary file, which may have a reference list of its own: not looked up in the article's list); details: highest dose (5 mg) daily, over 4 weeks; cited from earlier work
[12] = tested on: patients with haemodialysis CKD, Hb 9.5-12.0 g/dL; set-up: method as in ref 42 (a number printed in a supplementary file, which may have a reference list of its own: not looked up in the article's list); details: 5 mg daily, 4 weeks; cited from earlier work
[13] = tested on: subjects with non-dialysis CKD stage 3-5 and Hb < 10.5 g/dL; set-up: method as in ref 39 (a number printed in a supplementary file, which may have a reference list of its own: not looked up in the article's list); details: all Molidustat doses (25, 50, 75 mg daily; 25, 50 mg BID), 16 weeks; cited from earlier work

T1 sequence (Q9GZT9 whole entry): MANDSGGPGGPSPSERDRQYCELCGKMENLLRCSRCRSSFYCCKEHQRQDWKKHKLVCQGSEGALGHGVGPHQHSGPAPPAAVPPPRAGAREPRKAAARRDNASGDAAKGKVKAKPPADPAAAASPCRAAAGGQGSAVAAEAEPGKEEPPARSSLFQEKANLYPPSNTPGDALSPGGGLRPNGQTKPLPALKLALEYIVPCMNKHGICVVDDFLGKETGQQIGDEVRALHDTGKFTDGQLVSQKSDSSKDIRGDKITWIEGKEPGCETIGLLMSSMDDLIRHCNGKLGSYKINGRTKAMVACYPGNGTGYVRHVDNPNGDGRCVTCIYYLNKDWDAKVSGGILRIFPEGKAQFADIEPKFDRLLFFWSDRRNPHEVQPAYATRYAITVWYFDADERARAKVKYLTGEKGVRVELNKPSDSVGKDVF

Structure (SMILES): CC(C)(C)OC(=O)c1ccc(-n2[nH]cc(-n3ccnn3)c2=O)nc1 [IOX4]
- IC50 (PHD2 [1]): 0.94 µM
- IC50 (PHD2 [2]): 0.54 µM
- IC50 [3]: 0.003 µM
- binding by 1H CPMG NMR [4]: strong binding

Structure (SMILES): O=C(O)CNC(=O)c1ncc(-c2cccc(Cl)c2)cc1O [Vadadustat]
- subjects with Hb increase ≥ 1 g/dL from baseline ([5]; 240 mg daily): 31%
- subjects with Hb increase ≥ 1 g/dL from baseline ([5]; 370 mg daily): 40%
- subjects with Hb increase ≥ 1 g/dL from baseline ([5]; 500 mg daily): 65%
- subjects with Hb increase ≥ 1 g/dL from baseline ([5]; 630 mg daily): 78%

Structure (SMILES): Cc1nc(C(=O)NCC(=O)O)c(O)c2ccc(Oc3ccccc3)cc12 [FG-4592]
- IC50 (FIH): > 100 µM
- subjects with Hb increase ≥ 1 g/dL from baseline ([6]; 0.7 mg/kg BIW): 30%
- subjects with Hb increase ≥ 1 g/dL from baseline ([6]; 0.7 mg/kg TIW): 58%
- subjects with Hb increase ≥ 1 g/dL from baseline ([6]; 1.0 mg/kg BIW): 60%
- subjects with Hb increase ≥ 1 g/dL from baseline ([6]; 1.0 mg/kg TIW): 40%
- subjects with Hb increase ≥ 1 g/dL from baseline ([6]; 1.5 mg/kg BIW): 80%
- subjects with Hb increase ≥ 1 g/dL from baseline ([6]; 1.5 mg/kg TIW): 91%
- subjects with Hb increase ≥ 1 g/dL from baseline ([6]; 2.0 mg/kg BIW): 100%
- subjects with Hb increase ≥ 1 g/dL from baseline ([6]; 2.0 mg/kg TIW): 100%
- subjects with Hb increase ≥ -0.5 g/dL from baseline ([7]; Part 1, 6-week treatment, Roxadustat 1.5-2.0 mg/kg pool versus Epoetin Alfa arm): 79%
- average Roxadustat for Hb level maintenance (mean Hb ≥ 11.0 g/dL during last 4 weeks of treatment) ([7]; Part 2, 19-week treatment): 1.68 ± 0.65 mg/kg TIW
- subjects with Hb increase ≥ 1 g/dL (Hb response) from baseline ([8]; all Roxadustat treated subjects, 12 weeks): 96%
- median time to Hb response ([8]; each cohort): 3 weeks
- subjects with Hb increase ≥ 1 g/dL from baseline ([9]; high-dose cohort): 87.1%
- subjects with Hb increase ≥ 1 g/dL from baseline ([9]; low-dose cohort): 80%
- Hb levels maintained ([10]; high-dose cohort): 100%
- Hb levels maintained ([10]; low-dose cohort): 59.1%
- Hb levels maintained ([10]; medium-dose cohort): 88.9%

Structure (SMILES): O=C(O)CNC(=O)C1C(=O)N(C2CCCCC2)C(=O)N(C2CCCCC2)C1=O [GSK1278863]
- Hb increase [11]: ~ 1.0 g/dL
- Hb level maintenance after switch from rhEPO [12]: maintained

Structure (SMILES): O=c1c(-n2ccnn2)c[nH]n1-c1cc(N2CCOCC2)ncn1 [Molidustat]
- IC50 for FIH relative to PHD2 (FIH; isolated protein assays, Table 1): > 100 fold
- IC50 (FIH; isolated recombinant enzyme, read-out: IC50 FIH): 66 µM
- IC50 (PHD2 [1]): 1.85 µM
- IC50 (PHD2 [2]): 1.32 µM
- Hb increase [13]: at least 1.14 g/dL
- IC50 [3]: 0.007 µM
- binding by 1H CPMG NMR [4]: strong binding
